Results taken from the supplement of paper PMC10307832.

Legend:
Assay in all cases: relative viability (nuclei count vs DMSO), 5 days (fraction); higher = more cells survive
[1] = compound: CCC1=CN=CN=C1N2CCN(CC2)CC3=NC4=C(N3)C=C(C=C4)C(F)(F)F + Cc1nc(NC(=O)N2CCC[C@H]2C(N)=O)sc1-c1ccnc(C(C)(C)C(F)(F)F)c1 [Alpelisib] (partner 2 µM)
How it was run: (§1)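 Nuclei were stained with Hoechst during a one-step fixation (final 0.05% Triton X-100, 1% formaldehyde, 1 ug/ml Hoechst) carried out 5 days after dosing, then counted on 4× images. The cells, lung cancer lines in 1536-well plates, had been dosed by pin tool the day after seeding with one drug alone or a fixed anchor-drug dose plus five library-drug doses (not always all listed) in √10 steps. Relative viability is the nuclei count in treated wells divided by that in vehicle wells, and each value is the median of duplicate plates.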

[2] = compound: CCn1c(-c2nonc2N)nc2cnc(Oc3cccc(NC(=O)c4ccc(OCCN5CCOCC5)cc4)c3)cc21 + CC(=O)Nc1cccc(-n2c(=O)n(C3CC3)c(=O)c3c(Nc4ccc(I)cc4F)n(C)c(=O)c(C)c32)c1 [Trametinib] (partner 0.02 µM)
How it was run: as §1

[3] = compound: CCn1c(-c2nonc2N)nc2cnc(Oc3cccc(NC(=O)c4ccc(OCCN5CCOCC5)cc4)c3)cc21 + O=C(CCCCCCC(=O)Nc1ccccc1)NO [Vorinostat] (partner 1 µM)
How it was run: as §1

Mirin + Dasatinib = compound: N=C1NC(=O)/C(=C/c2ccc(O)cc2)S1 [Mirin] + Cc1nc(Nc2ncc(C(=O)Nc3c(C)cccc3Cl)s2)cc(N2CCN(CCO)CC2)n1 [Dasatinib] (partner 0.075 µM)
How it was run: as §1

Cell Line | relative viability ([1]; first compound 0.04 µM) | relative viability ([1]; first compound 0.1265 µM) | relative viability ([1]; first compound 0.4 µM) | relative viability ([1]; first compound 1.265 µM) | relative viability ([1]; first compound 4 µM) | relative viability ([2]; first compound 0.04 µM) | relative viability ([2]; first compound 0.1265 µM) | relative viability ([2]; first compound 0.4 µM) | relative viability ([2]; first compound 1.265 µM) | relative viability ([2]; first compound 4 µM) | relative viability ([3]; first compound 0.04 µM) | relative viability ([3]; first compound 0.1265 µM) | relative viability ([3]; first compound 0.4 µM) | relative viability ([3]; first compound 1.265 µM) | relative viability ([3]; first compound 4 µM) | relative viability (Mirin + Dasatinib; first compound 0.25 µM) | relative viability (Mirin + Dasatinib; first compound 0.7906 µM) | relative viability (Mirin + Dasatinib; first compound 2.5 µM) | relative viability (Mirin + Dasatinib; first compound 7.906 µM) | relative viability (Mirin + Dasatinib; first compound 25 µM)
H3255 | 0.742 | 0.721 | 0.711 | 0.67 | 0.65 | 0.671 | 0.676 | 0.577 | 0.442 | 0.579 | 0.92 | 0.743 | 0.686 | 0.618 | 0.568 | 0.383 | 0.315 | 0.347 | 0.275 | 0.381
NCI-H2126 | 0.74 | 0.756 | 0.722 | 0.639 | 0.745 | 0.61 | 0.594 | 0.562 | 0.583 | 0.57 | 1.04 | 0.879 | 0.608 | 0.894 | 0.82 | 0.631 | 0.58 | 0.601 | 0.517 | 0.514
LC-2-ad | 0.715 | 0.834 | 0.824 | 0.915 | 0.779 | 0.991 | 0.952 | 0.983 | 0.712 | 0.623 | 0.728 | 0.618 | 0.258 | 0.29 | 0.277 | 0.588 | 0.504 | 0.668 | 0.386 | 0.368
RERF-LC-KJ | 0.866 | 0.676 | 0.834 | 0.582 | 0.743 | 0.862 | 0.898 | 0.826 | 0.562 | 0.589 | 0.762 | 0.728 | 0.589 | 0.409 | 0.521 | 0.958 | 0.831 | 0.843 | 0.685 | 0.688
EBC-1 | 0.962 | 0.769 | 0.796 | 0.697 | 1.03 | – | – | – | – | – | – | – | – | – | – | – | – | – | – | –
HCC-15 | 0.954 | 0.877 | 0.925 | 0.892 | 0.889 | 0.38 | 0.36 | 0.348 | 0.39 | 0.378 | 0.938 | 0.785 | 0.81 | 0.767 | 0.718 | 0.608 | 0.655 | 0.599 | 0.632 | 0.404
NCI-H1563 | 0.887 | 0.92 | 1 | 0.986 | 0.954 | – | – | – | – | – | – | – | – | – | – | 0.536 | 0.471 | 0.481 | 0.42 | 0.428
COR-L 105 | 1.07 | 0.847 | 0.966 | 0.893 | 0.894 | 0.343 | 0.42 | 0.365 | 0.319 | 0.376 | 0.941 | 0.785 | 0.762 | 0.419 | 0.412 | 0.347 | 0.328 | 0.382 | 0.288 | 0.261
